For series [1] the following is noted: cited from earlier work.
In series [2] the test system is FaDu Head and Neck xenografts. Description: Diffusion of Hoechst evaluated by fluorescent imaging of tumor cryo-sections. It counts as in vivo, NMRI nude mice. The method, then:
Formulations of lactose isobutyrate:X-SAIB (contrast agent): EtOH and DMSO with composition of 1)75:5:15:5, 2) 77, 5:5:12, 5:5 and 2) 80:5:10:5 were prepared along with formulations of lactose acetate:propionate(1:1):X-SAIB(contrast agent): EtOH and DMSO in 75:5:15:5 ratio. All of the gel formulations were prepared with ˜0.7‰ of Hoechst 33342, as model of a DNA binding drug. 25-30 uL of each gel was injected into FaDu Head and Neck xenografts grown on the flank of NMRI nude mice (groups of 4-8 mice were injected with each formulation). Release and gel-stability was monitored for a maximum of 5-6 days. 2-3 mice were sacrificed at predetermined times (day 1, middle of the experimental period and at the end of the experimental period). The tumors were excised and snap-frozen with liquid N2 to preserve the tumor tissue for histological examination. Stability of the radiopaque gel-depots was evaluated by micro-CT imaging (see FIG. 18). Only the lactose isobutyrate gel was subjected to X-rays, to evaluate the effect of radiation on gel-stability. […] Diffusion of Hoechst was evaluated by fluorescent imaging of the tumor cryo-sections (see FIG. 19).

The nature of series [3]: Gel formation after injection of sugar ester formulations into PBS buffer. In kind it is physicochemical. Particulars: for injection into PBS and gel-formation: formulated with 35% and 20% propylene carbonate, respectively. As for the experimental part:
The gel-forming properties of the synthesized esters containing only small percentages of organic solvents and/or triglycerides were inspected in the following experiments
˜210 mg of the following sugar ester formulations: α,β Lactose octaacetate: α,β Lactose octaisobutyrate 5:1, α,β Lactose octaacetate: α,β Lactose octaisobutyrate 2:1, α,β Lactose octaacetate: α,β Lactose octaisobutyrate 1:1, α,β Lactose octaacetate: α,β Lactose octapropionate 1:1, α,β Lactose octaacetate: α,β Lactose octapropionate 1:5, α,β Lactose octaacetate: α,β Lactose octapropionate 1:3, α,β Lactose octapropionate: α,β Lactose octaisobutyrate 1:1, α,β Lactose octaacetate: α,β Lactose octaisobutyrate 1:5, α,β Lactose octapropionate, α,β Lactose octaisobutyrate: α,β Lactose octaacetate 0.5:0.5:5, α,β Lactose octaisobutyrate: α,β Lactose octaacetate 3:1, Trehalose octaacetate:Trehalose octapropionate 1:1, Trehalose octapropionate, Trehalose octaisobutyrate, Raffinose undecaacetate:Raffinose undecapropionate 1:1, Raffinose undecaisobutyrate, β-maltose octaisobutyrate and α,β-D-glucosamine pentapropionate were mixed with 20 wt % EtOH by heating to ˜37° C., vortexing and ultrasonication. ˜50-80 uL of the resulting formulations were then injected into 2 mL of PBS buffer using 25 G needles.
˜210 mg of the following sugar ester formulations: α,β Lactose octaacetate, α,β lactose octapropionate, α,β Lactose octaacetate: α,β lactose octapropionate 1:1, α,β lactose octaisobutyrate, α,β maltose octapropionate, β maltose octapropionate, α-D-glucosamine pentapropionate, α, β-D-glucosamine pentapropionate, β maltose octapropionate: α-D-glucosamine pentapropionate 1:1 and α-D-glucosamine pentaisobutyrate were mixed with 20 wt % NMP or DMSO by heating to ˜37° C., vortexing and ultrasonication. ˜50-60 uL of the resulting formulations were injected into PBS. With maltose octapropionate, glucosamine pentapropionate and lactose octaacetate alternative wt % of solvents were also tried (i.e. 25-40 wt % of the before mentioned solvents). […] In case of α,β-maltose propionate and α,β-D-glucosamine pentapropionate, injection into PBS and gel-formation are also successful when formulated with 35% and 20% propylene carbonate, respectively (examples shown in FIG. 1). Pure α-D-Glucosamine esters and hydrophilic maltose ester analogues have a tendency to form hard amorphous solids with some crystallinity after injection into PBS—so although ˜20 wt % solvent is possible to inject with difficulty, gels of this type containing ˜25-35 wt % solvent are easier to handle.
˜210 mg of α,β Lactose octaacetate: α,β Lactose octapropionate 1:1 or α,β Lactose octaisobutyrate were mixed with 2, 5 or 10 wt % glycerol trioctanoate, 5% DMSO and EtOH was added to give 20 wt % solvent in total for all formulations. In case of lactose octaisobutyrate, formulations containing 15 wt % glycerol trioctanoate and 5% DMSO, 30 wt % glycerol trioctanoate and 5% NMP/DMSO or 40 wt % glycerol trioctanoate alone were also made. The solutions were mixed by heating to ˜37° C., vortexing and ultrasonication. ˜40-60 uL of the resulting formulations were injected into PBS.

The mark [4] stands for this setting: 20 wt % EtOH, ~50-80 uL injected into 2 mL PBS buffer, 25 G needles.
Where [5] appears, read: 20 wt % NMP or DMSO (25-40 wt % also tried for some), ~50-60 uL injected into PBS.

By Log P is commonly meant the decadic logarithm of the partition coefficient of the neutral form, usually between octanol and water.

Consider `O=C([O-])c1ccccc1-c1c2cc(Br)c(=O)c(Br)c-2oc2c(Br)c([O-])c(Br)cc12.[Na+].[Na+]` [Eosin Y], for which the “Log P” value in series [1] is recorded as about 6.4.
Consider `CCOc1ccc(-c2nc3ccc(-c4nc5ccc(N6CCN(C)CC6)cc5[nH]4)cc3[nH]2)cc1` [Hoechst 33342], for which the “release of Hoechst into the tumors” value in series [2] (from gel depots, ~0.7‰ Hoechst 33342, tumor cryo-sections) was “confirmed release of Hoechst into the tumors”. The “distribution of the fluorophore in the tumor” value in series [2] (over a period of 6 days) is “distribution of the fluorophore across most of the tumor area”.
In the case of `CC(C)C(=O)OCC1O[C@H](OCC2O[C@@H](O[C@]3(COC(=O)C(C)C)O[C@H](COC(=O)C(C)C)[C@@H](OC(=O)C(C)C)[C@H]3OC(=O)C(C)C)C(OC(=O)C(C)C)[C@@H](OC(=O)C(C)C)[C@@H]2OC(=O)C(C)C)C(OC(=O)C(C)C)[C@@H](OC(=O)C(C)C)[C@H]1OC(=O)C(C)C` (stereo partly drawn) [Raffinose undecaisobutyrate, Raffinose Undecaisobutyrate], the “gel formation upon injection” value in series [3] (setting [4]) is given as “formed gels upon injection”.
On the same count and under the same terms, under `CCC(=O)OCC1O[C@@H](O[C@H]2OC(COC(=O)CC)[C@@H](OC(=O)CC)[C@H](OC(=O)CC)C2OC(=O)CC)C(OC(=O)CC)C(OC(=O)CC)[C@H]1OC(=O)CC` (stereo partly drawn) [Trehalose octapropionate, Trehalose Octapropionate] stands “formed gels upon injection”.
Take `O=C1OC2(c3ccc(O)cc3Oc3cc(O)ccc32)c2ccccc21` [fluorescein free acid]: in series [1], the “Log P” value is reported as about 1.8.
Consider `NNC(=O)c1ccncc1` [isoniazide], for which, in series [1], the “Log P” value is about −0.8.
On to `Nc1n[n+]([O-])c2ccccc2[n+]1[O-]` [tirapazamine], for which, in series [1], the “Log P” value is listed as about −0.06.
Consider `CC(=O)OC[C@H]1O[C@@H](O[C@H]2[C@H](OC(C)=O)[C@@H](OC(C)=O)C(OC(C)=O)O[C@@H]2COC(C)=O)[C@H](OC(C)=O)[C@@H](OC(C)=O)[C@H]1OC(C)=O` (stereo partly drawn) [α,β Lactose octaacetate, α,β-Lactose Octaacetate], for which, in series [3] (20 wt % DMSO or 20 wt % propylene carbonate), the injectability entry is on record as “this occurs with difficulty due to high viscosity”. Further, the “gel formation upon injection” value in series [3] (setting [5]) is reported as “formation of an amorphous solid (gel) was seen”.
For the compound `CC(C)C(=O)OC[C@H]1O[C@@H](O[C@H]2[C@H](OC(=O)C(C)C)[C@@H](OC(=O)C(C)C)C(OC(=O)C(C)C)O[C@@H]2COC(=O)C(C)C)[C@H](OC(=O)C(C)C)[C@@H](OC(=O)C(C)C)[C@H]1OC(=O)C(C)C` (stereo partly drawn) [α,β lactose octaisobutyrate, α,β-Lactose Octaisobutyrate], the “gel formation upon injection” value in series [3] (2-40 wt % glycerol trioctanoate, with DMSO/NMP/EtOH, ~40-60 uL injected into PBS) is given as “formation of an amorphous solid (gel) was seen”; in series [3] (setting [5]), “formation of an amorphous solid (gel) was seen”. Besides, the “appearance of the injected solid” value in series [3] (pure triglyceride used as solvent (40 wt % glycerol trioctanoate alone), up to 24 h after injection) is “very soft, transparant and could easily be manipulated in shape”.
Turning to `CCC(=O)OC[C@H]1O[C@@H](O[C@H]2[C@H](OC(=O)CC)[C@@H](OC(=O)CC)C(OC(=O)CC)O[C@@H]2COC(=O)CC)[C@H](OC(=O)CC)[C@@H](OC(=O)CC)[C@H]1OC(=O)CC` (stereo partly drawn) [α,β lactose octapropionate, α,β-Lactose Octapropionate], the “gel formation upon injection” value in series [3] (setting [5]) is “formation of an amorphous solid (gel) was seen”.
Regarding `CCC(=O)OCC1OC(OC(=O)CC)C(OC(=O)CC)[C@@H](OC(=O)CC)[C@@H]1O[C@H]1OC(COC(=O)CC)[C@@H](OC(=O)CC)[C@H](OC(=O)CC)C1OC(=O)CC` (stereo partly drawn) [α,β maltose octapropionate, α,β-Maltose Octapropionate], in series [3] (setting [5]), the “gel formation upon injection” value is “formation of an amorphous solid (gel) was seen”. In addition, the “injection into PBS and gel-formation” value in series [3] is on record as “successful”.
Consider `CCC(=O)NC1C(OC(=O)CC)OC(COC(=O)CC)[C@@H](OC(=O)CC)[C@@H]1OC(=O)CC` (stereo partly drawn) [α,β-D-glucosamine pentapropionate, α,β-D Glucosamine Pentapropionate], for which the “gel formation upon injection” value in series [3] (setting [4]) was “formed gels upon injection”; in series [3] (setting [5]) it was “formation of an amorphous solid (gel) was seen”. Besides, the “injection into PBS and gel-formation” value in series [3] is listed as “successful”.
With `CC(C)C(=O)NC1[C@@H](OC(=O)C(C)C)OC(COC(=O)C(C)C)[C@@H](OC(=O)C(C)C)[C@@H]1OC(=O)C(C)C` (stereo partly drawn) [α-D-glucosamine pentaisobutyrate, α-D Glucosamine Pentaisobutyrate], the “gel formation upon injection” value in series [3] (setting [5]) was “formation of an amorphous solid (gel) was seen”.
With `CCC(=O)NC1[C@@H](OC(=O)CC)OC(COC(=O)CC)[C@@H](OC(=O)CC)[C@@H]1OC(=O)CC` (stereo partly drawn) [α-D-glucosamine pentapropionate, α-D Glucosamine Pentapropionate], the “gel formation upon injection” value in series [3] (setting [5]) is recorded as “formation of an amorphous solid (gel) was seen”.
Take `CCC(=O)OCC1O[C@H](O[C@@H]2C(COC(=O)CC)O[C@@H](OC(=O)CC)C(OC(=O)CC)[C@H]2OC(=O)CC)C(OC(=O)CC)[C@@H](OC(=O)CC)[C@@H]1OC(=O)CC` (stereo partly drawn) [β maltose octapropionate, β-Maltose Octapropionate]: the “gel formation upon injection” value in series [3] (setting [5]) was “formation of an amorphous solid (gel) was seen”.
In the case of `CC(C)C(=O)OCC1O[C@H](O[C@@H]2C(COC(=O)C(C)C)O[C@@H](OC(=O)C(C)C)C(OC(=O)C(C)C)[C@H]2OC(=O)C(C)C)C(OC(=O)C(C)C)[C@@H](OC(=O)C(C)C)[C@@H]1OC(=O)C(C)C` (stereo partly drawn) [β-maltose octaisobutyrate, β-Maltose Octaisobutyrate], the “gel formation upon injection” value in series [3] (setting [4]) is given as “formed gels upon injection”.
With Trehalose Octaisobutyrate, the “gel formation upon injection” value in series [3] (setting [4]) is given as “formed gels upon injection”.

The values are drawn from patent US11065201B2, “Gel formulations for local drug release” (TECHNICAL UNIVERSITY OF DENMARK, priority 2014, dated 2021).
